Results from patent US12071404B2, “Aza (indole)-, benzothiophene-, and benzofuran-3-sulfonamides” (UCB Pharma GmbH, priority 2016, dated 2024).

Assays:
[1] = cited from earlier work
[2] = in vivo; cited from earlier work
GPR17 [3] = biological target: T1, GPR17 (Homo sapiens, UniProt Q13304); details: activating ligands for GPR17; cited from earlier work
Target sequence in this assay (Q13304 whole entry, species assumed): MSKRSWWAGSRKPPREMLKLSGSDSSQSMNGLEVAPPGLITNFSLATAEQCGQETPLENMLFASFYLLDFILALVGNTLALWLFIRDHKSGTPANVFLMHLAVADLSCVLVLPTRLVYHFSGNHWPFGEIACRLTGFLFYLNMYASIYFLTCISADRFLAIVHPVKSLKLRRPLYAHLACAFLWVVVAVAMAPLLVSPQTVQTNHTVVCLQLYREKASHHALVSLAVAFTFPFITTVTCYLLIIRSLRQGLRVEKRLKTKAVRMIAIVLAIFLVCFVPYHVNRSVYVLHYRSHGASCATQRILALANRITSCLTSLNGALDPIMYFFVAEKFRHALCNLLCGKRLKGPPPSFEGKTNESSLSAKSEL

[4] = exposure to air and light; cited from earlier work
GPR17 [5] = biological target: T1, GPR17; test: Calcium mobilization functional assay (GPR17 Ca2+ assay); type: cell-based; parameters: host or cells: Flp-In T-REx CHO; details: CHO hGPR17 cells, inhibition of 50 nM MDL29,951, Calcium 5 dye, FLIPR; read-out: Ca2+ assay pIC50 (converted)
Procedure, shortened: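 pIC50 values were fitted with a 4-parameter logistic curve. They reflect test-compound inhibition of cytosolic Ca2+ release evoked by 50 nM MDL29,951, tracked as Calcium 5 fluorescence at room temperature. Cells were CHO Flp-In T-REx stably carrying human GPR17, induced with doxycycline 1 μg/mL for 16-20 h.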
Target sequence in this assay (Q13304 whole entry): as the sequence (Q13304 whole entry, species assumed) above

GPR17 [6] = biological target: T1, GPR17; test: cAMP accumulation functional assay (HTRF, Schild analysis); type: cell-based; parameters: host or cells: Flp-In T-REx CHO; details: CHO hGPR17 cells, Schild analysis vs MDL29,951, 5 μM forskolin, read-out: cAMP assay pA2 (converted)
Procedure, shortened: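 Antagonist affinity (pA2) came from Schild plots of dose ratios, based on MDL29,951 concentration-response curves fitted by 4-parameter logistic. The read-out was HTRF cAMP in 5,000 doxycycline-induced CHO hGPR17 cells per well, with 30 min compound preincubation and 60 min stimulation, at room temperature in pH 7.4 buffer.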
Target sequence in this assay (Q13304 whole entry): as the sequence (Q13304 whole entry, species assumed) above

[7] = system: primary oligodendrocyte progenitor cells (OPCs); test: MBP fiber plates oligodendrocyte maturation/myelination assay; type: cell-based, rat; details: OPCs on aligned fiber plates, 1 μM test compound, 6 days, FIG. 2
Experimental: Primary oligodendrocyte progenitor cells (OPCs) were isolated from the forebrains of Wistar rat pups at postnatal day 0 to 2. Cerebra were mechanically dissociated with a syringe and two different hollow needles (first 1.2×40 and then 0.60×30). Clump-free cell suspension was filtered through a 70-μm cell strainer and plated into poly-D-lysine-coated 75-cm^2 culture flasks in DMEM supplemented with 10% (v/v) heat-inactivated fetal calf serum, penicillin (100 units/mL), and streptomycin (0.1 mg/mL) with medium exchanged every second day. After 8 to 11 days at 37° C. in a humidified atmosphere of 5% CO2, mixed cultures were shaken at 240 rpm for 14-24 h to detach OPCs from astrocytes and microglia. To further enrich for OPCs, the suspension was plated onto uncoated Petri dishes for 45 min. Then, OPCs were seeded into poly-L-ornithine-coated plates and maintained at 37° C. in a humidified atmosphere of 5% CO2 in proliferating Neurobasal medium supplemented with 2% (v/v) B27, 2 mM GlutaMAX, 100 units/mL penicillin, 0.1 mg/mL streptomycin, 10 ng/mL PDGF-AA, and 10 ng/mL basic FGF changing the medium every second day.
The effects of negative modulators of GPR17 on primary oligodendrocytes maturation/myelination can be assessed in vitro by immunoassays using antibodies directed against Myelin Basic Protein (MBP), as marker for mature oligodendrocytes. […]

Row | Compound | IC50 (GPR17 [5]) | Kb (GPR17 [6]) | also measured
1 | CC(C)(O)c1ccccc1CC[C@@H](SCC1(CC(=O)O)CC1)c1cccc(/C=C/c2ccc3ccc(Cl)cc3n2)c1 [montekulast, Montelukast] |  |  | protein binding [1]: high protein binding; brain penetration [2]: poor brain penetration
2 | NCC(=O)CCC(=O)O [Compound 5-ALA, 5 amino levulinic acid] |  |  | amounts needed in the GPR17 assays (reported affinity quite low) (GPR17 [3]): three digit micromolar range
3 | NCc1[nH]cc(CCC(=O)O)c1CC(=O)O [PBG, porphobilinogen] |  |  | amounts needed in the GPR17 assays (reported affinity quite low) (GPR17 [3]): mM range; chemical stability [4]: rapidly decomposes after exposure to air and light
4 | COC/C=C/c1cc(F)c(NS(=O)(=O)c2c[nH]c3cc(Cl)ccc23)nc1F [Compound I-252, 6-chloro-N-{3,6-difluoro-5-[(1E)-3-methoxyprop-1-en-1-yl]pyridin-2-yl}-1H-indole-3-sulfonamide] | < 3.16 nM | < 3.16 nM | 
5 | O=S(=O)(Nc1ccc(S(F)(F)(F)(F)F)cc1F)c1c[nH]c2cc(Cl)ccc12 [Compound I-215, 6-chloro-N-[2-fluoro-4-(pentafluoro-lambda-6-sulfanyl)phenyl]-1H-indole-3-sulfonamide] | 3.16 to 31.6 nM | 3.16 to 31.6 nM | 
6 | O=S(=O)(Nc1nc(F)c(Cl)cc1F)c1c[nH]c2cc(Cl)ccc12 [Compound I-199, 6-chloro-N-(5-chloro-3,6-difluoropyridin-2-yl)-1H-indole-3-sulfonamide] | 3.16 to 31.6 nM | < 3.16 nM | 
7 | O=S(=O)(Nc1ccc(Cl)cc1F)c1c[nH]c2c1ccc1cccnc12 [Compound I-65, N-(4-chloro-2-fluorophenyl)-1H-pyrrolo[3,2-h]quinoline-3-sulfonamide] | 3.16 to 31.6 nM | 3.16 to 31.6 nM | 
8 | COc1cc(C#N)c(F)cc1NS(=O)(=O)c1c[nH]c2c1ccc1ccccc12 [Compound I-289, N-(4-cyano-5-fluoro-2-methoxyphenyl)-1H-benzo[g]indole-3-sulfonamide] | < 3.16 nM | < 3.16 nM | 
9 | N#Cc1ccc(NS(=O)(=O)c2c[nH]c3cc(Cl)ccc23)c(F)c1 [Compound I-116, 6-chloro-N-(4-cyano-2-fluorophenyl)-1H-indole-3-sulfonamide] | < 3.16 nM | < 3.16 nM | myelin sheath length (myelinated fibers by fiber length) [7]: induced longer myelin sheaths
10 | O=S(=O)(Nc1ccc(OC(F)(F)F)cc1F)c1c[nH]c2nc(Cl)ccc12 [Compound I-273, 6-chloro-N-[2-fluoro-4-(trifluoromethoxy)phenyl]-1H-pyrrolo[2,3-b]pyridine-3-sulfonamide] | 3.16 to 31.6 nM | 3.16 to 31.6 nM | 
11 | N#Cc1ccc(NS(=O)(=O)c2c[nH]c3nc(Br)ccc23)c(F)c1 [Compound I-177, 6-bromo-N-(4-cyano-2-fluorophenyl)-1H-pyrrolo[2,3-b]pyridine-3-sulfonamide] | < 3.16 nM | < 3.16 nM | 
12 | O=S(=O)(Nc1cc(OC(F)F)c(Cl)cc1F)c1c[nH]c2cc(Cl)ccc12 [Compound I-195, 6-chloro-N-[4-chloro-5-(difluoromethoxy)-2-fluorophenyl]-1H-indole-3-sulfonamide] | 3.16 to 31.6 nM | < 3.16 nM | 
13 | N#Cc1ccc(NS(=O)(=O)c2c[nH]c3cc(-c4ccsc4)ccc23)c(F)c1 [Compound I-230, N-(4-cyano-2-fluorophenyl)-6-(thiophen-3-yl)-1H-indole-3-sulfonamide] | 3.16 to 31.6 nM | 3.16 to 31.6 nM | 
14 | COc1cc(NS(=O)(=O)c2c[nH]c3cc(Cl)ccc23)ccc1C#N [Compound I-124, 6-chloro-N-(4-cyano-3-methoxyphenyl)-1H-indole-3-sulfonamide] | 3.16 to 31.6 nM | 3.16 to 31.6 nM | 
15 | [N-]=[N+]=Nc1ccc(NS(=O)(=O)c2c[nH]c3cc(Cl)ccc23)c(F)c1 [Compound I-241, N-(4-azido-2-fluorophenyl)-6-chloro-1H-indole-3-sulfonamide] | 3.16 to 31.6 nM | 3.16 to 31.6 nM | 
16 | C[S+]([O-])c1ccc2c(S(=O)(=O)Nc3ccc(C#N)cc3)c[nH]c2c1 (stereo not drawn) [Compound I-237, N-(4-cyanophenyl)-6-(methylsulfinyl)-1H-indole-3-sulfonamide] | > 31.6 nM | > 31.6 nM | 
17 | N#Cc1ccc(NS(=O)(=O)c2c[nH]c3nc(Cl)ccc23)cc1 [Compound I-178, 6-chloro-N-(4-cyanophenyl)-1H-pyrrolo[2,3-b]pyridine-3-sulfonamide] | 3.16 to 31.6 nM | 3.16 to 31.6 nM | 
18 | N#Cc1ccc(NS(=O)(=O)c2c[nH]c3cc(OCc4ccccc4)ccc23)c(F)c1 [Compound I-154, 6-(benzyloxy)-N-(4-cyano-2-fluorophenyl)-1H-indole-3-sulfonamide] | < 3.16 nM | 3.16 to 31.6 nM | 
19 | CCO/C=C/c1cc(F)c(NS(=O)(=O)c2c[nH]c3cc(Cl)ccc23)nc1F [Compound I-332, 6-chloro-N-{5-[(E)-2-ethoxyethenyl]-3,6-difluoropyridin-2-yl}-1H-indole-3-sulfonamide] | 3.16 to 31.6 nM | < 3.16 nM | 
20 | COc1nc(NS(=O)(=O)c2c[nH]c3c(F)c(Cl)ccc23)c(F)cc1CC#N [Compound I-354, 6-chloro-N-[5-(cyanomethyl)-3-fluoro-6-methoxypyridin-2-yl]-7-fluoro-1H-indole-3-sulfonamide] | < 3.16 nM | < 3.16 nM | 
21 | O=C(Nc1cccc2c(=O)cc(-c3nnn[nH]3)oc12)c1ccc(OCCCCc2ccccc2)cc1 [pranlukast] |  |  | protein binding [1]: high protein binding; brain penetration [2]: poor brain penetration
22 | N#Cc1ccc2c(S(=O)(=O)Nc3cc(F)c(OC(F)F)cc3F)c[nH]c2c1 [Compound I-282, 6-cyano-N-[4-(difluoromethoxy)-2,5-difluorophenyl]-1H-indole-3-sulfonamide] | 3.16 to 31.6 nM | 3.16 to 31.6 nM | 
23 | O=S(=O)(Nc1cc(F)c(Cl)cc1F)c1c[nH]c2c1ccc1cccnc12 [Compound I-118, N-(4-chloro-2,5-difluorophenyl)-1H-pyrrolo[3,2-h]quinoline-3-sulfonamide] | < 3.16 nM | < 3.16 nM | 
24 | N#CCOc1cc(F)c(NS(=O)(=O)c2coc3cc(Cl)ccc23)cc1F [Compound I-342, 6-chloro-N-[4-(cyanomethoxy)-2,5-difluorophenyl]-1-benzofuran-3-sulfonamide] | 3.16 to 31.6 nM | 3.16 to 31.6 nM | 
25 | O=S(=O)(Nc1cc(F)c(C(F)(F)F)cc1F)c1c[nH]c2nc(Cl)ccc12 [Compound I-303, 6-chloro-N-[2,5-difluoro-4-(trifluoromethyl)phenyl]-1H-pyrrolo[2,3-b]pyridine-3-sulfonamide] | < 3.16 nM | < 3.16 nM | 
26 | O=S(=O)(Nc1cc(F)c(F)cc1F)c1c[nH]c2nc(Cl)ccc12 [Compound I-223, 6-chloro-N-(2,4,5-trifluorophenyl)-1H-pyrrolo[2,3-b]pyridine-3-sulfonamide] | 3.16 to 31.6 nM | > 31.6 nM | 
27 | CS(=O)(=O)c1c(Cl)ccc2c(S(=O)(=O)Nc3cc(F)c(Cl)cc3F)c[nH]c12 [Compound I-261, 6-chloro-N-(4-chloro-2,5-difluorophenyl)-7-(methylsulfonyl)-1H-indole-3-sulfonamide] | 3.16 to 31.6 nM | 3.16 to 31.6 nM | 
